Assay results reported in US20230190743A1, “TREATMENT WITH ILEAL BILE ACID TRANSPORTER (IBAT) INHIBITORS FOR INCREASED EVENT-FREE SURVIVAL (EFS)” (Mirum Pharmaceuticals, Inc., priority 2021, published 2023).
“Also recorded” adds a separate entry of the source.

Tests used:
[1] = tested on: patients with Alagille syndrome (ALGS); assay: 6-year event-free survival analysis, maralixibat cohort versus GALA control group; type: in vivo, human
Excerpt: Real-world evidence (RWE) analytics continue to advance natural history comparisons in rare diseases. GALA is the largest global clinical research database for […] syndrome (ALGS). Maralixibat (MRX) is an ileal bile acid transporter inhibitor being studied in ALGS. A pre-specified analysis plan applied novel analytical techniques to compare RWE to a MRX cohort with the aim to compare event-free survival (EFS) in patients with ALGS. GALA contains retrospective data for clinical parameters, biochemistries and outcomes. The MRX database comprises of 84 ALGS patients with up to 6 years of data. EFS was defined as the time to first event of hepatic decompensation (variceal bleeding, ascites requiring therapy), surgical biliary diversion, liver transplantation (LT), or death. GALA was filtered to align key MRX eligibility criteria. The index time was determined via maximum likelihood estimation. Balance among baseline (BL) variables was assessed. Selection of patients and index time was blinded to clinical outcomes. Sensitivity and subgroup analyses, and adjustments for covariates were applied. Missing outcomes data were censored at last contact.

[2] = tested on: children with FIC1 or BSEP deficiencies (PFIC); assay: INDIGO open-label Phase 2 long-term efficacy and safety study; type: in vivo, human; conditions: for tolerability: up to 5 years of treatment
Method: INDIGO investigated the effect of maralixibat on sBA levels and cholestatic pruritus, alongside other biochemical markers of cholestasis and liver disease in these patients.
The study was conducted at 12 hospitals in France, Poland, the United Kingdom, and the United States. Screening evaluations were performed in the 6 weeks prior to the start of the study. In patients without documented ATP8B1 or ABCB11 mutations, genetic testing was performed.
The primary efficacy endpoint was the change in mean fasting sBA levels from Baseline to Week 13 in the overall intent-to-treat (ITT) study population. The key secondary efficacy endpoint was the mean change in observer-rated pruritus (Itch Reported Outcome Observer [ItchRO(Obs)]) score from Baseline to Week 13 in the overall ITT study population. Other secondary efficacy endpoints included the mean changes from Baseline to Week 13 in total cholesterol, low- and high-density lipoprotein cholesterol (LDL-C and HDL-C, respectively), and serum triglyceride levels in the overall ITT study population. Additional efficacy and safety analyses included the change from Baseline to Week 72 and Week 240 in sBA levels, patient height and weight, bile acid synthesis (as determined by the ratio between sBA levels and 7α-hydroxy-4-cholesten-3-one [7α-C4] levels), quality of life as measured by the Pediatric Quality of Life Inventory™ (PedsQL™), mean changes in ALT, aspartate aminotransferase (AST), and bilirubin (total and direct), lipid profiles, and FSV levels. The ItchRO assessment was not performed at Week 72, so data from Week 48 were used instead.
Efficacy and safety analyses were performed for the overall ITT study population as well as the two PFIC subtypes (FIC1 deficiency and BSEP deficiency) separately. Patients with BSEP deficiency were analyzed overall and according to their mutation type (t-BSEP and nt-BSEP). Long-term changes in pruritus scores, patient height, blood lipids, liver parameters, and transplant-free survival were assessed according to a responder analysis.
Quantitative analysis of the 15 major sBAs and serum 7α-C4 was performed at a single site (Cincinnati) by stable isotope dilution electrospray ionization liquid chromatography-mass spectrometry (LCMS/MS) using a fully validated proprietary assay that complies with College of American Pathologists/Clinical Laboratory Improvement Amendments certification. The study protocol defined a composite response to maralixibat as achieving a ≥1.0-point reduction in ItchRO(Obs) score and a ≥70% reduction or normalization of sBA levels from Baseline. […] Pruritus was measured using the ItchRO tool, which was specifically developed and validated to evaluate pruritus in children with cholestatic liver diseases, based on a five-point scale where 0=‘none’ and 4=‘very severe’. […] The ItchRO measure was completed twice daily via an eDiary. Parents/caregivers completed the ItchRO(Obs) assessment for all patients. Additionally, children ≥9 years of age completed the ItchRO(Pt) assessment. Levels of ALT, AST, bilirubin (total and direct), lipids, and FSV were assessed using standard clinical laboratory techniques. Quality of life was assessed using the PedsQL™ questionnaire. […] The occurrence of treatment-emergent adverse events (TEAEs) and serious adverse events (SAEs) was assessed throughout the study.

## CCCCC1(CCCC)CS(=O)(=O)c2ccc(N(C)C)cc2[C@@H](c2ccc(OCc3ccc(C[N+]45CCN(CC4)CC5)cc3)cc2)[C@H]1O [maralixibat]
[1]; MRX cohort, patients with ALGS (GALA control 50%)
  crude 6-year EFS: 73%
[1]; adjusted for age, sex, TB, ALT, 95% CI:0.189-0.491, p<0.0001
  EFS hazard ratio (HR), MRX cohort vs GALA control: 0.305
[2]; 266 μg/kg once daily
  sBA responders who achieved response during once-daily dosing: six and Six
[2]; 266 μg/kg twice daily, after Week 97
  sBA responders who achieved response after switching to twice-daily dosing: one
[2]; 18 patients
  TEAE cough, patients: 55%
[2]; 19 patients
  TEAE diarrhea, patients: 58%
[2]; 20 patients
  TEAE pyrexia, patients: 61%
[2]; 33 patients
  TEAEs mild or moderate in severity: 58%
[2]; 33 patients, result in words
  patients who experienced ≥1 TEAE: All patients
[2]; P<0.001 vs sBA responders, result in words
  sBA non-responders with transplant-free survival after >5 years: none
[2]; Week 13, ITT population, 95% CI −1.04, −0.53, P<0.001
  mean reduction from Baseline in ItchRO(Obs) score: −0.8
[2]; Week 13, ITT population, 95% CI −1.55, −0.47, P=0.002
  mean reduction from Baseline in ItchRO(Pt) score: −1.0
[2]; during the study
  patients with serious TEAEs: 15 patients
[2]; eight patients with FIC1 deficiency, result in words
  patients with FIC1 deficiency who met the sBA responder criteria: No patient
[2]; in vivo
  SAEs abdominal pain, diarrhea, and gastroenteritis: two
  patients who discontinued due to adverse events or liver transplantation following disease progression: 12 patients
[2]; listed for refractory pruritus at the beginning of the study
  sBA responders listed for liver transplantation who were removed from the transplant waiting list: Two
[2]; n=19 nt-BSEP
  patients with nt-BSEP who achieved sBA response: 37%
[2]; of 19 patients with nt-BSEP
  patients with nt-BSEP with rapid and sustained reductions in sBA levels: 6 patients
[2]; of 19 with nt-BSEP, during the study
  patients with nt-BSEP who achieved sBA response (reduction >75% from baseline or <102.0 μmol/L): seven
[2]; one with FIC1 deficiency, seven with BSEP deficiency
  patients who discontinued maralixibat due to an adverse event: Eight
[2]; overall ITT population (33 patients), 95% CI −74.830, 41.070, P=0.884
  change in sBA levels from Baseline to Week 13: -16.9 µmol/L
[2]; patients with FIC1 deficiency, long-term, result in words
  mean levels of sBA, ItchRO(Obs) scores, and PedsQL scores versus Baseline: did not change significantly
[2]; patients with nt-BSEP, Week 240, 95% CI 4.07, 48.50, P=0.027
  change in mean level of serum 7α-C4: +26.29 ng/mL
[2]; result in words
  deaths during the study: No deaths
  effect on levels of FSV or liver transaminases: did not have any significant detrimental effects
  tolerability: generally safe and well tolerated
[2]; sBA non-responders
  sBA non-responders with clinically meaningful (>1.0 points) reduction in ItchRO(Obs): Three
[2]; sBA non-responders, Week 72, 95% CI −0.606, −0.012
  change in weight z-score (decrease): −0.30
[2]; sBA responders
  time to decrease of sBA levels upon treatment initiation: 2-4 Weeks
[2]; sBA responders, Week 72, 95% CI 0.369, 0.976, P=0.0016
  change from Baseline in mean height z-score: 0.67
[2]; sBA responders, Week 72, 95% CI −0.001, 0.603, P=0.051
  change from Baseline in mean weight z-score: 0.30
[2]; sBA responders, if elevated at Baseline, result in words
  serum ALT, AST, and bilirubin levels: improvements and/or normalization
[2]; sBA responders, 95% CI 6.7, 40.6, P=0.014
  change in mean PedsQL score from Baseline to Week 240: 24 points
[2]; sBA responders, result in words
  7α-C4/sBA ratio compared with Baseline: generally increased; also recorded: increased rapidly
[2]; six patients with t-BSEP, result in words
  patients with t-BSEP who met the sBA responder criteria: No patients and No patient and none
[2]; result in words, listed as Maralixibat
  tolerability: generally well-tolerated; also recorded: generally well tolerated
